Article PMC5024008 (American Journal of Transplantation, 2015)
Values belong to the compound of their own block, whether it stands above or below them.

Columns and labels:
[1] = ABT-450 200 mg and 250 mg for 12 to 24 weeks; HCV-infected patients; cited from earlier work
[2] = assay type: in vivo, human (healthy volunteers)
[3] = Effect of a single dose of cyclosporine on DAA steady-state pharmacokinetics; assay type: in vivo, human (healthy volunteers); settings: for change in pharmacokinetic parameters: by cyclosporine and tacrolimus, steady-state 3D regimen

Compound: Cc1cnc(C(=O)N[C@H]2CCCCC/C=C\[C@@H]3C[C@@]3(C(=O)NS(=O)(=O)C3CC3)NC(=O)[C@@H]3C[C@@H](Oc4nc5ccccc5c5ccccc45)CN3C2=O)cn1 [ABT-450]
safety and tolerability [1]: safe and well tolerated

AUC(0-inf) ([2]; human, whole blood, oral, 2 mg): 118 ng·h/mL
Cmax ([2]; human, whole blood, oral, 2 mg): 11 ng/mL
Tmax ([2]; human, whole blood, oral, 2 mg): 1.8 h
concentration at 12 h ([2]; human, whole blood, oral, 2 mg): 1.6 ng/mL
concentration at 24 h ([2]; human, whole blood, oral, 2 mg): 1.1 ng/mL
delay in Tmax ([2]; in the presence of the 3D regimen at steady state vs tacrolimus alone): 3.2 h
dose-normalized C24 with 3D relative to dose-normalized C12 alone ([2]; tacrolimus with steady-state 3D regimen vs tacrolimus alone): 11 fold
Compound: C=CC[C@@H]1/C=C(\C)C[C@H](C)C[C@H](OC)[C@H]2O[C@@](O)(C(=O)C(=O)N3CCCC[C@H]3C(=O)O[C@H](/C(C)=C/[C@@H]3CC[C@@H](O)[C@H](OC)C3)[C@H](C)[C@@H](O)CC1=O)[C@H](C)C[C@@H]2OC [tacrolimus]

change in steady-state exposures (Cmax and AUC) ([3]; in the presence of cyclosporine or tacrolimus vs absence): ≤ 15%
Compound: COC(=O)N[C@H](C(=O)N1CCC[C@H]1C(=O)Nc1ccc([C@@H]2CC[C@@H](c3ccc(NC(=O)[C@@H]4CCCN4C(=O)[C@@H](NC(=O)OC)C(C)C)cc3)N2c2ccc(C(C)(C)C)cc2)cc1)C(C)C [Ombitasvir, ombitasvir]

change in pharmacokinetic parameters [3]: ≤ 34%
Compound: COc1c(-c2ccc3cc(NS(C)(=O)=O)ccc3c2)cc(-n2ccc(=O)[nH]c2=O)cc1C(C)(C)CO [Dasabuvir M1]

change in pharmacokinetic parameters [3]: ≤ 34%
Compound: CC(C)c1nc(CN(C)C(=O)N[C@H](C(=O)N[C@@H](Cc2ccccc2)C[C@H](O)[C@H](Cc2ccccc2)NC(=O)OCc2cncs2)C(C)C)cs1 [Ritonavir, ritonavir]

change in pharmacokinetic parameters [3]: ≤ 34%
Compound: COc1c(-c2ccc3cc(NS(C)(=O)=O)ccc3c2)cc(-n2ccc(=O)[nH]c2=O)cc1C(C)(C)C [Dasabuvir, dasabuvir]
